Experimental findings from patent publication US20230212124A1, “SMALL-MOLECULE INHIBITORS OF THE FRS2-FGFR INTERACTION” (UNIVERSITÄT ZÜRICH, priority 2020, published 2023) are described below.

Series [1] is described as follows: In vitro ADMET: toxicity (MTT). Format: cell-based. From the text: (§1) FIG. 16 Table showing the in vitro absorption, distribution, metabolism, elimination and toxicity (ADMET) properties of F3.14.
For series [2], the system named is FGFR-driven cancer cell lines. The experiment in a line: Spheroid invasion assay. It counts as cell-based. To be noted: all the FGFR-driven cancer cell lines tested. How it is done:
Spheroid Invasion Assay (S/A) and Automated Cell Dissemination Counter (aCDc)
1000 cells/100 μl per well were seeded in cell-repellent 96 well microplate (650790, Greiner Bio-one). The cells were incubated at 37° C. overnight to form spheroids. 70 μl of the medium were removed from each well, and remaining medium with spheroid overlaid with 2.5% bovine collagen 1. Following the polymerization of collagen, fresh medium was added to the cells and treated with growth factors and/or with inhibitors. The cells were allowed to invade the collagen matrix for 24 h, after which they were fixed with 4% PFA and stained with Hoechst. Images were acquired on an Axio Observer 2 mot plus fluorescence microscope (Zeiss, Munic, Germany) using a 5×objective. Cell invasion is determined as the average of the distance invaded by the cells from the centre of the spheroid as determined using automated cell dissemination counter (aCDc) with our cell dissemination counter software aSDlcs (Kumar et al., Sci Rep 5, 15338 (2015)).

Another series deals with FGF signaling pathway. The experiment in a line: Immunoblotting / pathway analysis. It counts as cell-based. How it is done:
(§2) Cancer cells were treated with bFGF (100 ng/ml) and/or with compounds and lysed using Radioimmunoprecipitation assay (RIPA) buffer. RIPA buffer lysates were resolved by SDS-PAGE and transferred to a nitrocellulose membrane using a transfer apparatus according to the manufacturer's instructions (Bio-Rad). Membranes were probed with primary antibodies against phospho-FRS2, FRS2, ERK1/2, phospho-ERK1/2, AKT, phosphor-AKT, phospho-PKC and tubulin. HRP-linked secondary antibodies (1:5000) were used to detect the primary antibodies. Chemiluminescence detection was performed using ChemiDoc Touch Gel and Western Blot imaging system (BioRad).
as §2, with “RIPA” for “Cancer cells were treated with bFGF (100 ng/ml) and/or with compounds and lysed using Radioimmunoprecipitation assay (RIPA) buffer. RIPA”, “buffer FGFR-driven cell” for “buffer”, “phospho-AKT,” for “phosphor-AKT,”, “(BioRad). Integrated density of Immuno-reactive bands was quantified using Adobe Photoshop CS5.” for “(BioRad).”
A general note: In western blotting, separated proteins are transferred to a membrane and probed.

Series [3] can be described thus: In vitro ADMET: metabolic stability (intrinsic clearance, t½). It counts as in vitro ADME.
Excerpt: as §1

In a further series the target is T1, FRS2 (Homo sapiens, UniProt Q8WU20).
T1 construct: 6xHis
T1 sequence (Q8WU20 1-508): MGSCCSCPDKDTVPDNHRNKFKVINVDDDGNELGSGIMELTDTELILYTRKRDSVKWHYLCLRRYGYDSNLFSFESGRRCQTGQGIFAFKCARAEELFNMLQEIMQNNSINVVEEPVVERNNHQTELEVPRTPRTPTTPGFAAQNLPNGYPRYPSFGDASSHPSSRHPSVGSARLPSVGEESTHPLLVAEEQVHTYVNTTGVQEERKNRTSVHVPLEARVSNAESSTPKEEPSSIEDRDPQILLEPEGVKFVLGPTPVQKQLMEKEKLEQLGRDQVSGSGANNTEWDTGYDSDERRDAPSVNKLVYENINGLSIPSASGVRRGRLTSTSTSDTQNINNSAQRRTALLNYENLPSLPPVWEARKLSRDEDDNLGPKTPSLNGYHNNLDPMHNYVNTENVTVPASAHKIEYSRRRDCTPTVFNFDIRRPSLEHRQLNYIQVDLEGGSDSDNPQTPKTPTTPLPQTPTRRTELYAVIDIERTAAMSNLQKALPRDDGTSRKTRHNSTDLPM
The experiment in a line: Biophysical binding assays (nanoDSF, MST, NMR). To be noted: MST and NMR analysis. How it is done: Nano Differential Scanning Fluorimetry (nanoDSF)
Purified FRS2 protein tagged with 6× Histidine residues and Guanine nucleotide-binding protein subunit beta (GB1) was diluted in the protein buffer (100 mM sodium phosphate, 50 mM NaCl, 0.5 mM EDTA, 50 mM arginine, 1 mM TCEP, pH 7.0) to final concentration of 30 μM. The compounds were dissolved in 100% at 50 or 100 mM and further diluted to 1 mM with a final concentration of 100% DMSO. Compound and protein were mixed at 1:1 ration yielding final concentrations of 15 μM and 500 μM for the compounds. The mixture was incubated at room temperature for 15 minutes before measurement. The measurement was performed on a Prometheus system in high sensitivity capillaries. Samples were subjected to a temperature gradient of 20 to 95° C. with 1° C./min intervals.
Microscale Thermophoresis (MST)
Purified FRS2 protein tagged with 6× Histidine residues and Guanine nucleotide-binding protein subunit beta (GB1) was labelled with 2nd generation BLUE-NHS dye. The protein was labelled at a final concentration of 20 µM with 60 μM dye. The labelling was performed in the protein buffer without arginine supplementation. Arginine was re-buffered to protein's buffer post-labelling. The compounds were dissolved in 100% at 50 or 100 mM and further diluted to 1 mM with a final concentration of 100% DMSO. […] The interaction was measured in two independent duplicates.
In general terms: DSF heats the sample and reads unfolding from a dye or from intrinsic fluorescence.

Series [4] relates to FGFR-driven cancer cell lines. The experiment in a line: Cell titer glo assay. Format: cell-based. To be noted: all the FGFR-driven cancer cell lines tested. How it is done:
The metabolic activity and the proliferation of the cells were determined using the Cell Titer glo assay from Promega according to the manufacturer's instructions. In brief, 250 cells/100 μl/per well (for up to 72 h incubation) were seeded in Greiner Bio-One p-clear 384 well plates (655090, Greiner Bio-One) and incubated overnight at 37° C. The old media was then replaced with fresh serum-free media and the cells were treated with BGJ398 or F3.14 till the desired time point. Following appropriate incubation for each timepoint, 10 μl of the Cell titer glo reagent was added to each well (final concentration of cell titer glo reagent per well is 1:10) and incubated at 37° C. for 30 minutes. The luminescence was then measured with a signal integration time of 0.5 to 1 second per well.

A short description of series [5]: In vitro ADMET: permeability (efflux ratio). It counts as in vitro ADME.
Excerpt: as §1

The nature of series [6]: In vitro ADMET: semi-thermodynamic solubility. To be noted: aqueous solutions. It counts as physicochemical.
Excerpt: as §1

Series [7] can be described thus: In vitro ADMET table: potency. It counts as cell-based.
Excerpt: as §1

The nature of a further series: In vivo pharmacokinetics. The note with it: mice, intravenous. How it is done: 3 Healthy non-SCID mice were intravenously treated with F3.14—Blood samples were collected at 2, 4, 6, 8 and 24 hours after treatment. Serum from the collected blood samples were isolated and the concentration of F3.14 in the serum was measure to determine the intrinsic clearance of F3.14.

Turning to `CC(C)C[C@@H](CO)NCc1cc(O)c2cc(F)ccc2n1` [Compound F3.14], in [1], the toxicities entry is listed as “very low”. The “inhibition of cancer cell invasion” value in series [2] is “effectively inhibits”. Further, in the series with FGF signaling pathway, the “effect on FGF signal transduction (phosphorylation of downstream effectors)” value was “inhibits the FGF signal transduction by inhibiting the phosphorylation of the downstream effectors”. Also, the intrinsic clearance result in series [3] was “moderate”. Besides, the “binding to FRS2” value on FRS2 was “confirmed the binding of F3.14 to FRS2”. In addition, the “inhibition of cancer cell proliferation” value in series [4] was “effectively inhibits”. In series [5], the permeability result is given as “good”. In addition, in series [6], the solubility result is on record as “very good”. In [7], the potency entry is listed as “high”. In addition, the tolerability entry in the series “In vivo pharmacokinetics” was “well-tolerated”.
